From PMC8652888, “Angiogenesis, Anti-Tumor, and Anti-Metastatic Activity of Novel α-Substituted Hetero-Aromatic Chalcone Hybrids as Inhibitors of Microtubule Polymerization” (Frontiers in Chemistry, 2021)
pIC50: −log10 of the molar value. Several values for one entry are separate records, joined by “and”; a condition that tells them apart may be missing. Equal entries are not always repeated.

Experiments:
[1] = system: MCF-7, U937, HepG2 and MGC-803 cells; assay: Antiproliferative activity, cancer cell panel (text summaries); format: cell-based, human; details: U937, MCF7, HepG2; read-out: IC50 against three cancer cells
Experimental: The synthesized compounds were first evaluated for their cytotoxic effect on MCF-7 (human breast adenocarcinoma), U937 (histiocytic lymphoma cancer), HepG2 (human liver cancer) cells, and MGC-803 (human gastric cancer) using the SRB and CCK-8 assay. As reference compounds CA-4 and colchicine were included.
The primary tumor cells were purchased from a professional biomedical company. First, the primary tumor cells were incubated in a cell culture incubator at 37°C and 5% CO2. After the cell fusion reached 85%–95%, subculture was performed, and the tumor cells obtained at this time were used for subsequent related experiments. The CCK-8 method was used to inhibit the proliferation of U937 tumor cells, and the SRB method was used to inhibit the proliferation of MCF7 and HepG2 tumor cells.
Cells were distributed into 96-well plates with a density of 3 × 10^3–4 × 10^3 cells per well and incubated for 24 h in a 5% CO2 incubator at 37°C, followed by treatment with study compounds at different concentrations at 37°C for 72 h. One hundred microliters of 10% (w/v) trichloroacetic acid was added to each well, fixed at 4°C for 30 min, and dried at 65°C. Then 100 μl of 0.4% SRB was added to each well and stained on a shaker for 20 min at room temperature. The excess dye solution was washed with newly prepared 1% glacial acetic acid and dried at 65°C. One hundred fifty microliters of 10 mM unbuffered Trisbase was added to each well of the plate and shaken for 5 min to dissolve the dye. The microplate reader measured the optical density (OD) at a wavelength of 560 nm.
The cells in the logarithmic growth phase were seeded in a 96-well plate at 8,000/well, and the drug-containing medium and cell suspension were added to the well. Three wells were added with the blank medium as the blank group. The 96-well plate was incubated for 72 h in a 37°C, 5% CO2 incubator. The 10 μl of CCK-8 dye solution was added to each well, and the incubation continued for 3–4 h.

MCF-7 cells = assay: Cell cycle analysis, flow cytometry with PI staining; format: cell-based, human; details: for G2/M cells: 24 h; for G0/G1, single runs / G0/G1 AVERAGE / G2/M, single runs / S AVERAGE / S, single runs / G2/M AVERAGE: flowjo raw data
Experimental: It is known that tubulin inhibitors block the cell cycle in the G2/M phase because of microtubule depolymerization and cytoskeleton disruption. Therefore, the effects of 7m on cell cycle progression of MCF-7 cells were analyzed by flow cytometry with PI staining. MCF-7 cells were treated with different concentrations (0, 100, 200, and 400 nM) of compound 7m for 24 h and 200 nM 7m at different times (0, 6, 12, and 24 h), respectively. […] When the concentration was increased to 200 and 400 nM, cells of 47% and 56% G2/M phase arrest were observed, respectively. Similarly, this phenomenon occurred after treatment with 200 nM 7m from 0 to 24 h.
MCF-7 cells were seeded into six-well plates (5 × 10^5 cells/well) and incubated at 37°C in a humidified 5% CO2 incubator for 24 h, and then treated with or without compound 7m at indicated concentrations (100, 200, 400 nM). The collected cells were fixed by adding 70% of ethanol at −20°C for 12 h. The cells were then washed with PBS, incubated with […] of RNase at 37°C for 30 min, and stained with […] of propidium iodide for 15 min, and finally subjected to flow cytometry.

[2] = system: intersegmental vessel (ISV) development, Tg (flk: EGFP) embryos; assay: Anti-angiogenic effect on zebrafish embryos; format: in vivo
Excerpt: Zebrafish embryo is a powerful model to study human diseases, and the transgenic zebrafish labeled with green fluorescent protein (GFP) in endothelial cells are always used to analyze angiogenesis activity in vivo ([Rocke et al., 2009]). Accordingly, we treated the transgenic Tg (flk: EGFP) embryos with different doses of 7m (0.5, 1, 2.5, 5 μΜ), and 30 hpf zebrafish was imaged by fluorescent microscopy to examine the effect on intersegmental vessel (ISV) development. […] When the concentration of 7m was elevated to 2.5 μΜ, the […] effect was more pronounced as evidenced by the 3.5- to 4-fold reduction in the number of SIVs.
The transgenic zebrafish Tg (flk: EGFP) embryos were paired normally and collected into a six-well plate (n = 30/well), then 1 ml of aquaculture water (0.2 g/L distilled water instant sea salt) was added and were raised at 28.5°C. When the zebrafish embryos developed to 12 hpf, the indicated concentrations of 7m were added, and 30 embryos were selected for each concentration gradient and incubated at 28.5°C to 30 hpf. At 30 hpf, the zebrafish embryos were imaged and photographed under a fluorescence microscope to observe the growth of blood vessels in the body, and the number of intersegmental blood vessels (ISV) was recorded.

Substance: 3-(benzofuran-6-yl)-2-methyl-1-(3,4,5-trimethoxyphenyl)prop-2-en-1-one [Compound 7m]
- pIC50 [1]: 6.74 to 7.15
- G2/M cells (MCF-7 cells; 100 nM): 26%
- G0/G1, single runs (MCF-7 cells; 100nM): 61.76 and 47.12
- G0/G1 AVERAGE (MCF-7 cells; 100nM): 54.44
- G2/M, single runs (MCF-7 cells; 100nM): 15.14 and 28.34
- S AVERAGE (MCF-7 cells; 100nM): 23.82
- S, single runs (MCF-7 cells; 100nM): 23.1 and 24.54
- G0/G1, single runs (MCF-7 cells; 200nM dose series): 40.1 and 25.72
- G0/G1 AVERAGE (MCF-7 cells; 200nM dose series): 32.91
- G2/M, single runs (MCF-7 cells; 200nM dose series): 40.78 and 56.03
- S AVERAGE (MCF-7 cells; 200nM dose series): 18.685
- S, single runs (MCF-7 cells; 200nM dose series): 19.12 and 18.25
- G0/G1, single runs (MCF-7 cells; 200nM, 6h): 55.81 and 61.73
- G0/G1 AVERAGE (MCF-7 cells; 200nM, 6h): 58.77
- G2/M AVERAGE (MCF-7 cells; 200nM, 6h): 29.28
- G2/M, single runs (MCF-7 cells; 200nM, 6h): 36.18 and 22.38
- S AVERAGE (MCF-7 cells; 200nM, 6h): 15.51
- G0/G1, single runs (MCF-7 cells; 200nM, 12h): 34.65 and 32.01
- G0/G1 AVERAGE (MCF-7 cells; 200nM, 12h): 33.33
- G2/M AVERAGE (MCF-7 cells; 200nM, 12h): 41.805
- G2/M, single runs (MCF-7 cells; 200nM, 12h): 44.73 and 38.88
- S AVERAGE (MCF-7 cells; 200nM, 12h): 25.405
- S, single runs (MCF-7 cells; 200nM, 12h): 23.93 and 26.88
- G2/M cells (MCF-7 cells; 200 nM, dose series (Fig 6A)): 47%
- G0/G1, single runs (MCF-7 cells; 200nM, 24h): 6.61 and 3.51
- G0/G1 AVERAGE (MCF-7 cells; 200nM, 24h): 5.06
- G2/M AVERAGE (MCF-7 cells; 200nM, 24h): 91.725
- G2/M, single runs (MCF-7 cells; 200nM, 24h): 93.1 and 90.35
- S AVERAGE (MCF-7 cells; 200nM, 24h): 5.79
- G0/G1, single runs (MCF-7 cells; 400nM): 16.1 and 15.39
- G0/G1 AVERAGE (MCF-7 cells; 400nM): 15.745
- G2/M AVERAGE (MCF-7 cells; 400nM): 67.3
- G2/M, single runs (MCF-7 cells; 400nM): 66.98 and 67.62
- S AVERAGE (MCF-7 cells; 400nM): 16.955
- S, single runs (MCF-7 cells; 400nM): 16.92 and 16.99
- number and length of SIVs vs vehicle control ([2]; 0.5 and 1 μΜ, 30 hpf): slightly reduced
- ISVs formations ([2]; doses ≥5 μM): seriously impaired
- developmental toxicity in embryos ([2]; doses ≥5 μM): developmental defects were observed
